We go through eight compounds from patent US6667333B2, “Herbicidal 3-(4,5 dihydroisoxazole- 3 yl) substituted benzoycyclohexenone derivatives” (BASF Aktiengesellschaft, priority 1999, dated 2003).

One series deals with Brachiaria plantaginea. As to the kind of experiment: greenhouse post-emergence herbicidal test. Type of series: in vivo, Brachiaria plantaginea (alexandergrass). The note with it: application rates of 0.25 or 0.125 kg/ha, 2 to 4 weeks. The source says:
(§1) The cultivation containers used were plastic flower pots containing loamy sand with approximately 3.0% of humus as the substrate. The seeds of the test plants were sown separately for each species.
(§2) For the post-emergence treatment, the test plants were first grown to a height of from 3 to 15 cm, depending on the plant habit, and only then treated with the active compounds which had been suspended or emulsified in water. The test plants were for this purpose either sown directly and grown in the same containers, or they were first grown separately as seedlings and transplanted into the test containers a few days prior to treatment. The application rate for the post-emergence treatment was 0.25 or 0.125 kg of a.s. (active substance)/ha.
(§3) Depending on the species, the plants were kept at 10-25° C. or 20-35° C. The test period extended over 2 to 4 weeks. During this time, the plants were tended, and their response to the individual treatments was evaluated.
(§4) The evaluation was carried out using a scale from 0 to 100. 100 means no emergence of the plants, or complete destruction of at least the aerial parts and 0 means no damage, or normal course of growth.
(§5) The plants used in the greenhouse experiments were of the following species: […]

The next series concerns Abutilon theophrasti. As to the kind of experiment: greenhouse post-emergence herbicidal test. Type of series: in vivo, Abutilon theophrasti (velvet leaf). The note with it: application rates of 0.25 or 0.125 kg/ha, 2 to 4 weeks.
Text: as §1, §2, §3, §4, §5

The next series has as its system Avena fatua. Kind of series: greenhouse post-emergence herbicidal test. Type of series: in vivo, Avena fatua (wild oat). The conditions noted are these: application rates of 0.25 or 0.125 kg/ha, 2 to 4 weeks.
Text: as §1, §2, §3, §4, §5

The test system of another series is Chenopodium album. As to the kind of experiment: greenhouse post-emergence herbicidal test. Type of series: in vivo, Chenopodium album (lamb's-quarters). The conditions noted are these: application rates of 0.25 or 0.125 kg/ha, 2 to 4 weeks.
Text: as §1, §2, §3, §4, §5

For another series, the system named is Polygonum persicaria. As to the kind of experiment: greenhouse post-emergence herbicidal test. The conditions noted are these: application rates of 0.25 or 0.125 kg/ha, 2 to 4 weeks. Type of series: in vivo, Polygonum persicaria (lady's-thumb).
Text: as §1, §2, §3, §4, §5

The next series concerns Echinochloa crus galli. Kind of series: greenhouse post-emergence herbicidal test. The note with it: application rates of 0.25 or 0.125 kg/ha, 2 to 4 weeks. Type of series: in vivo, Echinochloa crus galli (barnyardgrass).
Text: as §1, §2, §3, §4, §5

The structures appear in SMILES notation.

On to `Cc1c(C(=O)C2=C(O)CC(C)(C)CC2=O)ccc(S(C)(=O)=O)c1C1=NOC2CC12` (centres unmarked) [Compound 2.1], for which the melting point stood at 102 °C. The post-emergence action entry with Brachiaria plantaginea was “very good”. In addition, the post-emergence action result with Abutilon theophrasti is reported as “very good”. Further, in the series with Avena fatua, the post-emergence action entry was “very good”. For the same compound, the post-emergence action entry with Chenopodium album is “very good”. For the same compound, the post-emergence action entry in the series with Polygonum persicaria is reported as “very good”. Moreover, the post-emergence action entry with Echinochloa crus galli is recorded as “very good”.
With `Cc1c(C(=O)C2=C(O)C(C)CC(C)C2=O)ccc(S(C)(=O)=O)c1C1=NOC2CC12` (centres unmarked) [Compound 2.3, 2-[2-Methyl-3-(2-oxa-3-azabicyclo[3.1.0]hex-3-en-4-yl)-4-methylsulfonylbenzoyl]-1-hydroxy-4,6-dimethylcyclohex-1-en-3-one], the melting point is 90 to 96 °C.
Compound `CSC1(C)CCC(=O)C(C(=O)c2ccc(S(C)(=O)=O)c(C3=NOC4CC34)c2C)=C1O` (centres unmarked) [Compound 2.5] gave a melting point of 100 to 106 °C.
Same read-out and setting: in the case of `CC1(C)CC(=O)C(C(=O)c2ccc(S(C)(=O)=O)c(C3=NOC4CC34)c2Cl)=C(O)C1` (centres unmarked) [Compound 2.7] it was 101 to 105 °C; in that of `Cc1c(C(=O)C2=C(O)CC(C)(C)CC2=O)ccc(S(C)(=O)=O)c1C1=NOC2(C)CC12` (centres unmarked) [Compound 2.8], 112 to 120 °C.
Compound `Cc1c(C(=O)C2=C(O)C(C)CC(C)C2=O)ccc(S(C)(=O)=O)c1C1=NOC2(C)CC12` (centres unmarked) [Compound 2.12] yielded a melting point of 98 to 112 °C.
Consider `Cc1c(C(=O)C2=C(O)CC(C)(C)CC2=O)ccc(S(C)(=O)=O)c1C1=NOC2CC12C` (centres unmarked) [Compound 2.13], for which the melting point is 120 to 127 °C.
Same read-out and setting: in the case of `Cc1c(C(=O)C2=C(O)C(C)(C)CCC2=O)ccc(S(C)(=O)=O)c1C1=NOC2(C)CC12` (centres unmarked) [Compound 2.14] it was 120 to 130 °C.
